Laboratory results from patent publication US9650395B2, “Antibacterial compounds and methods for use” (PTC Therapeutics, Inc., priority 2011, dated 2017).
≈ marks a conversion by molar mass, not a printed value.

What was measured:
[1] = system: control Gram-negative E. coli 25922 strain; assay: Antibacterial activity, microbroth dilution MIC, E. coli 25922; assay type: cell-based, Escherichia coli; details: Escherichia coli; E. coli 25922, microbroth dilution; read-out: MIC, 25922
[2] = system: resistant A. baumannii MXX2240 (MDR clinical isolate); assay: Antibacterial activity, MIC, resistant A. baumannii MXX2240; assay type: cell-based, Acinetobacter baumannii; details: Acinetobacter baumannii, resistant A. baumannii MMX2240, MDR clinical isolate; read-out: MIC MMX2240
[3] = system: Gram-positive Staphylococcus aureus (S. aureus) 29213; assay: Antibacterial activity, microbroth dilution MIC, S. aureus 29213; assay type: cell-based; details: Staphylococcus aureus; S. aureus 29213, microbroth dilution; read-out: MIC, 29213
[4] = system: E. coli ELZ4000 (MDR clinical isolate); assay: Antibacterial activity, MIC, MDR E. coli ELZ4000; assay type: cell-based, Escherichia coli; details: Escherichia coli; E. coli ELZ4000, MDR clinical isolate; read-out: MIC ELZ4000
[5] = system: Klebsiella pneumoniae (K. pneumoniae) 35657; assay: Antibacterial activity, MIC, K. pneumoniae 35657; assay type: cell-based; details: Klebsiella pneumoniae
[6] = system: quinolone resistant E. coli LZ3111; assay: Antibacterial activity, MIC, quinolone resistant E. coli LZ3111; assay type: cell-based, Escherichia coli; details: Escherichia coli, read-out: MIC, LZ3111
Source text: (§1) The antibacterial activity from a microbroth dilution method may be presented as the minimum inhibitory concentration (MIC in […]). The MIC value is the lowest concentration of a drug which prevents macroscopically visible bacterial growth under test conditions.
Mutations in these regions are known to confer a high level resistance to the quinolone class of antibiotics.

[7] = system: super sensitive Gram-negative Escherichia coli (E. coli) BAS849; assay: Antibacterial activity, microbroth dilution MIC, E. coli BAS849; assay type: cell-based; details: Escherichia coli; E. coli BAS849, microbroth dilution; read-out: MIC, BAS849
[8] = system: Pseudomonas aeruginosa (P. aeruginosa) 27853; assay: Antibacterial activity, MIC, P. aeruginosa 27853; assay type: cell-based; details: Pseudomonas aeruginosa, P. aeruginosa 27853; read-out: MIC 27853
Source text: as §1
Antibacterial activity of test compounds against the Gram-negative bacterium Pseudomonas aeruginosa (P. aeruginosa) 27853 is shown in Table 5.

[9] = system: Acinetobacter baumannii (A. baumannii) BAA747; assay: Antibacterial activity, MIC, A. baumannii BAA747; assay type: cell-based; details: Acinetobacter baumannii; A. baumannii BAA747; read-out: MIC BAA747
[10] = system: E. coli ELZ4251 (MDR clinical isolate); assay: Antibacterial activity, MIC, MDR E. coli ELZ4251; assay type: cell-based, Escherichia coli; details: Escherichia coli, E. coli ELZ4251, MDR clinical isolate; read-out: MIC ELZ4251
[11] = system: resistant K. pneumoniae MXX1232 (MDR clinical isolate); assay: Antibacterial activity, MIC, resistant K. pneumoniae MXX1232; assay type: cell-based, Klebsiella pneumoniae; details: Klebsiella pneumoniae; resistant K. pneumoniae MMX1232, MDR clinical isolate; read-out: MIC MMX1232

Compound	MIC [1]	MIC [2]	MIC [3]	MIC [4]	MIC [5]	MIC [6]	MIC [7]	MIC [8]	MIC [9]	MIC [10]	MIC [11]
CCc1cc(C(=O)O)c(=O)[nH]c1-c1ccc(N2C[C@@H]3[C@H](C2)[C@H]3NCc2ccccc2)cc1 [Cpd 178, 6-{4-[(1R,5S,6s)-6-(benzylamino)-3-azabicyclo[3.1.0]hex-3-yl]phenyl}-5-ethyl-2-oxo-1,2-dihydropyridine-3-carboxylic acid]	< 1 µg/mL	12.5 to 150 µg/mL (≈ 29.1 to 349 µM)	12.5 to 150 µg/mL (≈ 29.1 to 349 µM)	12.5 to 150 µg/mL (≈ 29.1 to 349 µM)	< 1 µg/mL	12.5 to 150 µg/mL (≈ 29.1 to 349 µM)	< 1 µg/mL	12.5 to 150 µg/mL (≈ 29.1 to 349 µM)	1 to 3.5 µg/mL (≈ 2.33 to 8.15 µM)	12.5 to 150 µg/mL (≈ 29.1 to 349 µM)	12.5 to 150 µg/mL (≈ 29.1 to 349 µM)
CCc1cc(C(=O)O)c(=O)[nH]c1-c1ccc(N2CCC(c3ccccn3)C2)cc1 (centres unmarked) [Cpd 227, 5-ethyl-2-oxo-6-{4-[3-(pyridin-2-yl)pyrrolidin-1-yl]phenyl}-1,2-dihydropyridine-3-carboxylic acid]	1 to 3.5 µg/mL (≈ 2.57 to 8.99 µM)	12.5 to 150 µg/mL (≈ 32.1 to 385 µM)	1 to 3.5 µg/mL (≈ 2.57 to 8.99 µM)		3.5 to 12.5 µg/mL (≈ 8.99 to 32.1 µM)	12.5 to 150 µg/mL (≈ 32.1 to 385 µM)	< 1 µg/mL	3.5 to 12.5 µg/mL (≈ 8.99 to 32.1 µM)	1 to 3.5 µg/mL (≈ 2.57 to 8.99 µM)		12.5 to 150 µg/mL (≈ 32.1 to 385 µM)
CCc1c(-c2ccc(N3CC4(CCCN4)C3)cc2)[nH]c(=O)c(C(=O)O)c1O [Cpd 323, 6-(4-(2,5-diazaspiro[3.4]octan-2-yl)phenyl)-5-ethyl-4-hydroxy-2-oxo-1,2-dihydropyridine-3-carboxylic acid]	3.5 to 12.5 µg/mL (≈ 9.47 to 33.8 µM)	12.5 to 150 µg/mL (≈ 33.8 to 406 µM)	12.5 to 150 µg/mL (≈ 33.8 to 406 µM)		12.5 to 150 µg/mL (≈ 33.8 to 406 µM)	3.5 to 12.5 µg/mL (≈ 9.47 to 33.8 µM)	1 to 3.5 µg/mL (≈ 2.71 to 9.47 µM)	12.5 to 150 µg/mL (≈ 33.8 to 406 µM)	12.5 to 150 µg/mL (≈ 33.8 to 406 µM)		12.5 to 150 µg/mL (≈ 33.8 to 406 µM)
CCc1c(-c2ccc(N3CCC4(CCNC4)C3)cc2)[nH]c(=O)c(C(=O)O)c1O (centres unmarked) [Cpd 321, 6-(4-(2,7-diazaspiro[4.4]nonan-2-yl)phenyl)-5-ethyl-4-hydroxy-2-oxo-1,2-dihydropyridine-3-carboxylic acid]	12.5 to 150 µg/mL (≈ 32.6 to 391 µM)	12.5 to 150 µg/mL (≈ 32.6 to 391 µM)	12.5 to 150 µg/mL (≈ 32.6 to 391 µM)		3.5 to 12.5 µg/mL (≈ 9.13 to 32.6 µM)	12.5 to 150 µg/mL (≈ 32.6 to 391 µM)	1 to 3.5 µg/mL (≈ 2.61 to 9.13 µM)	12.5 to 150 µg/mL (≈ 32.6 to 391 µM)	12.5 to 150 µg/mL (≈ 32.6 to 391 µM)		12.5 to 150 µg/mL (≈ 32.6 to 391 µM)
CCc1c(-c2ccc(CCN(C)C)cc2)[nH]c(=O)c(C(=O)O)c1O [Cpd 343, 6-(4-(2-(dimethylamino)ethyl)phenyl)-5-ethyl-4-hydroxy-2-oxo-1,2-dihydropyridine-3-carboxylic acid]	12.5 to 150 µg/mL (≈ 37.8 to 454 µM)	12.5 to 150 µg/mL (≈ 37.8 to 454 µM)	12.5 to 150 µg/mL (≈ 37.8 to 454 µM)		12.5 to 150 µg/mL (≈ 37.8 to 454 µM)	12.5 to 150 µg/mL (≈ 37.8 to 454 µM)	3.5 to 12.5 µg/mL (≈ 10.6 to 37.8 µM)	12.5 to 150 µg/mL (≈ 37.8 to 454 µM)	12.5 to 150 µg/mL (≈ 37.8 to 454 µM)		12.5 to 150 µg/mL (≈ 37.8 to 454 µM)
Cc1c(-c2ccc(N3C[C@@H]4[C@@H](N)[C@@H]4C3)cn2)[nH]c(=O)c(C(=O)O)c1O [Cpd 317, 6-(5-((1R,5S,6s)-6-amino-3-azabicyclo[3.1.0]hexan-3-yl)pyridin-2-yl)-4-hydroxy-5-methyl-2-oxo-1,2-dihydropyridine-3-carboxylic acid]	3.5 to 12.5 µg/mL (≈ 10.2 to 36.5 µM)	12.5 to 150 µg/mL (≈ 36.5 to 438 µM)	12.5 to 150 µg/mL (≈ 36.5 to 438 µM)		3.5 to 12.5 µg/mL (≈ 10.2 to 36.5 µM)	12.5 to 150 µg/mL (≈ 36.5 to 438 µM)	3.5 to 12.5 µg/mL (≈ 10.2 to 36.5 µM)	12.5 to 150 µg/mL (≈ 36.5 to 438 µM)	12.5 to 150 µg/mL (≈ 36.5 to 438 µM)		12.5 to 150 µg/mL (≈ 36.5 to 438 µM)
CCc1c(-c2cnc(N3CCC(N(C)C)C3)cn2)[nH]c(=O)c(C(=O)O)c1O (centres unmarked) [Cpd 314, 6-(5-(3-(dimethylamino)pyrrolidin-1-yl)pyrazin-2-yl)-5-ethyl-4-hydroxy-2-oxo-1,2-dihydropyridine-3-carboxylic acid]	12.5 to 150 µg/mL (≈ 33.5 to 402 µM)	12.5 to 150 µg/mL (≈ 33.5 to 402 µM)	12.5 to 150 µg/mL (≈ 33.5 to 402 µM)		12.5 to 150 µg/mL (≈ 33.5 to 402 µM)	3.5 to 12.5 µg/mL (≈ 9.37 to 33.5 µM)	3.5 to 12.5 µg/mL (≈ 9.37 to 33.5 µM)	12.5 to 150 µg/mL (≈ 33.5 to 402 µM)	12.5 to 150 µg/mL (≈ 33.5 to 402 µM)		12.5 to 150 µg/mL (≈ 33.5 to 402 µM)
